Test results as given in the supplement of paper PMC6045584.
± gives the standard deviation of the averaged measurements.

Assays:
LENVATINIB = compound: COc1cc2nccc(Oc3ccc(NC(=O)NC4CC4)c(Cl)c3)c2cc1C(N)=O [LENVATINIB]; assay: surviving fraction relative to DMSO-only wells; higher = less growth inhibition; settings: exposure time: 5 days
How it was run: (§1)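 Lines were retained only if, across three screens, replicate Pearson r was >0.7 and median Z' was >0.3. Viability was measured as CellTiter-Glo luminescence and reported as surviving fraction relative to the median of DMSO-only wells. Readings followed 10 minutes at room temperature, after log-phase tumour cells seeded at 250–500 per well in 384-well plates had been exposed, from 24 hours after seeding, continuously for five days to inhibitors at 0.5, 1, 5, 10, 50, 100, 500 and 1000 nM.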

MK-1775 = compound: C=CCn1c(=O)c2cnc(Nc3ccc(N4CCN(C)CC4)cc3)nc2n1-c1cccc(C(C)(C)O)n1 [MK-1775]; assay: as above; settings: exposure time: 5 days
How it was run: as §1

Test System	surviving fraction (LENVATINIB; 0.5 nM)	surviving fraction (LENVATINIB; 1 nM)	surviving fraction (LENVATINIB; 5 nM)	surviving fraction (LENVATINIB; 10 nM)	surviving fraction (LENVATINIB; 50 nM)	surviving fraction (LENVATINIB; 100 nM)	surviving fraction (LENVATINIB; 500 nM)	surviving fraction (LENVATINIB; 1000 nM)	surviving fraction (MK-1775; 0.5 nM)	surviving fraction (MK-1775; 1 nM)	surviving fraction (MK-1775; 5 nM)	surviving fraction (MK-1775; 10 nM)	surviving fraction (MK-1775; 50 nM)	surviving fraction (MK-1775; 100 nM)	surviving fraction (MK-1775; 500 nM)	surviving fraction (MK-1775; 1000 nM)
HCC1395 BREAST	0.937 ± 0.018	0.948 ± 0.079	0.932 ± 0.05	1.03 ± 0.058	1 ± 0.11	1.03 ± 0.045	0.999 ± 0.098	0.845 ± 0.075	0.885 ± 0.071	1.169 ± 0.0022	1.03 ± 0.2	1.14 ± 0.12	0.935 ± 0.1	0.931 ± 0.12	0.741 ± 0.11	0.618 ± 0.083
HCC1806 BREAST	1.02 ± 0.018	0.932 ± 0.099	1.12 ± 0.13	1.13 ± 0.089	1.24 ± 0.079	1.1 ± 0.13	0.961 ± 0.088	0.941 ± 0.13	1.05 ± 0.047	0.996 ± 0.076	1.13 ± 0.032	1.02 ± 0.14	0.631 ± 0.082	0.303 ± 0.036	0.049 ± 0.0061	0.0403 ± 0.0015
HCC1954 BREAST	0.904 ± 0.058	0.817 ± 0.05	1.0393 ± 0.00035	0.917 ± 0.04	0.993 ± 0.058	0.988 ± 0.011	1.03 ± 0.11	1.11 ± 0.067	0.762 ± 0.1	0.775 ± 0.012	1.08 ± 0.13	0.8722 ± 0.0025	0.719 ± 0.017	0.625 ± 0.0078	0.203 ± 0.013	0.102 ± 0.0042
HCT15 LARGE INTESTINE	1.09 ± 0.031	1.08 ± 0.039	1.08 ± 0.031	1.09 ± 0.063	1.13 ± 0.052	1.17 ± 0.061	1.12 ± 0.028	1.14 ± 0.021	1.033 ± 0.0098	1.02 ± 0.032	1 ± 0.037	1.02 ± 0.035	1.05 ± 0.037	1 ± 0.05	0.521 ± 0.087	0.121 ± 0.0021
HELA CERVIX	1.06 ± 0.088	1.04 ± 0.095	1.05 ± 0.061	1.05 ± 0.071	1.17 ± 0.04	1.19 ± 0.1	1.19 ± 0.1	1.17 ± 0.044	1.04 ± 0.025	1.07 ± 0.045	1.02 ± 0.064	0.993 ± 0.059	1.15 ± 0.039	1.113 ± 0.0066	0.0972 ± 0.0083	0.0538 ± 0.0035
HOS BONE	1.03 ± 0.012	1.067 ± 0.0047	1.03 ± 0.028	1.02 ± 0.025	1.06 ± 0.071	1.05 ± 0.047	1.02 ± 0.017	0.946 ± 0.0092	1.02 ± 0.017	1.02 ± 0.011	1.05 ± 0.039	1.03 ± 0.027	1.027 ± 0.0056	0.98 ± 0.028	0.15 ± 0.019	0.065 ± 0.0027
HOSMNG BONE	1.02 ± 0.036	1.03 ± 0.023	0.964 ± 0.06	1.02 ± 0.043	1.11 ± 0.033	1.07 ± 0.036	1.09 ± 0.067	1.05 ± 0.091	1.04 ± 0.027	0.978 ± 0.061	0.935 ± 0.091	0.977 ± 0.11	1.01 ± 0.072	1.07 ± 0.063	0.143 ± 0.013	0.059 ± 0.0076
HSSYII SYNOVIAL	0.933 ± 0.057	0.961 ± 0.028	0.952 ± 0.018	0.942 ± 0.06	0.842 ± 0.026	0.724 ± 0.024	0.38 ± 0.024	0.3 ± 0.017	1.05 ± 0.034	1 ± 0.03	1.002 ± 0.0055	0.884 ± 0.012	0.628 ± 0.035	0.12 ± 0.0027	0.147 ± 0.064	0.0442 ± 0.0045
HT1080 SOFT TISSUE	1 ± 0.043	1.01 ± 0.051	1 ± 0.033	1.02 ± 0.032	1 ± 0.013	0.978 ± 0.021	1 ± 0.039	0.987 ± 0.026	1.02 ± 0.03	1.01 ± 0.017	0.992 ± 0.019	1.02 ± 0.023	0.638 ± 0.025	0.277 ± 0.012	0.113 ± 0.015	0.091 ± 0.0089
HU09 BONE	0.925 ± 0.039	0.985 ± 0.079	0.97 ± 0.014	0.937 ± 0.13	0.649 ± 0.075	0.587 ± 0.021	0.33 ± 0.045	0.288 ± 0.034	1.02 ± 0.088	0.916 ± 0.096	1.009 ± 0.01	0.99 ± 0.049	0.831 ± 0.14	0.518 ± 0.045	0.06 ± 0.005	0.0393 ± 0.0049
HUO3N1 BONE	1.05 ± 0.057	1.04 ± 0.058	1.03 ± 0.013	0.961 ± 0.053	0.967 ± 0.034	0.876 ± 0.018	0.764 ± 0.0072	0.676 ± 0.051	0.979 ± 0.036	0.941 ± 0.032	1 ± 0.034	1.01 ± 0.039	0.995 ± 0.02	0.843 ± 0.041	0.348 ± 0.014	0.204 ± 0.015
JIMT1 BREAST	0.987 ± 0.026	1.03 ± 0.0053	1.03 ± 0.026	1.03 ± 0.052	1.06 ± 0.068	1.04 ± 0.011	1 ± 0.015	1.08 ± 0.011	1.02 ± 0.021	0.987 ± 0.016	0.989 ± 0.01	0.991 ± 0.012	0.4405 ± 0.0039	0.227 ± 0.0077	0.0768 ± 0.0097	0.0532 ± 0.0013
JURKAT HAEMATOPOIETIC AND LYMPHOID TISSUE	1.06 ± 0.011	1.08 ± 0.024	1.03 ± 0.035	1.02 ± 0.041	1 ± 0.039	1.02 ± 0.038	1.013 ± 0.009	0.964 ± 0.032	1.09 ± 0.017	1.11 ± 0.016	1.08 ± 0.019	1.099 ± 0.0087	0.986 ± 0.038	0.772 ± 0.036	0.039 ± 0.001	0.039
KPD BONE	1 ± 0.019	0.99 ± 0.067	1.01 ± 0.078	1.01 ± 0.093	1 ± 0.11	1.02 ± 0.11	0.948 ± 0.03	0.814 ± 0.037	0.945 ± 0.12	0.91 ± 0.02	0.971 ± 0.029	0.949 ± 0.031	0.954 ± 0.034	0.808 ± 0.039	0.293 ± 0.0046	0.175 ± 0.009
LM7 BONE	0.974 ± 0.11	0.951 ± 0.066	1.03 ± 0.074	0.973 ± 0.086	1.07 ± 0.12	1.03 ± 0.041	0.939 ± 0.022	0.952 ± 0.11	0.957 ± 0.1	0.947 ± 0.065	0.999 ± 0.12	0.982 ± 0.15	0.751 ± 0.013	0.506 ± 0.032	0.146 ± 0.016	0.0563 ± 0.0015
LNCAP PROSTATE	1.16 ± 0.031	0.973 ± 0.044	0.904 ± 0.17	0.896 ± 0.1	1.02 ± 0.13	0.924 ± 0.16	0.909 ± 0.12	0.533 ± 0.073	0.99 ± 0.088	0.951 ± 0.14	0.995 ± 0.082	0.921 ± 0.14	0.984 ± 0.065	0.544 ± 0.073	0.161 ± 0.012	0.0767 ± 0.013
MCF7 BREAST	0.954 ± 0.061	0.903 ± 0.056	0.954 ± 0.059	0.931 ± 0.076	0.971 ± 0.034	0.978 ± 0.11	0.942 ± 0.03	0.934 ± 0.073	0.886 ± 0.021	0.894 ± 0.013	0.864 ± 0.0098	0.873 ± 0.042	0.869 ± 0.052	0.856 ± 0.028	0.736 ± 0.014	0.602 ± 0.035
MDAMB134 BREAST	1.12 ± 0.079	1.08 ± 0.044	1.16 ± 0.069	1.09 ± 0.011	1.29 ± 0.13	1.32 ± 0.14	0.972 ± 0.15	1.05 ± 0.057	1.11 ± 0.1	1.02 ± 0.086	1.17 ± 0.039	1.075 ± 0.0064	1.08 ± 0.064	0.994 ± 0.047	0.752 ± 0.035	0.733 ± 0.0099
MDAMB157 BREAST	0.97 ± 0.13	1.03 ± 0.081	0.993 ± 0.071	1.06 ± 0.11	0.934 ± 0.045	0.873 ± 0.069	0.7437 ± 0.0042	0.621 ± 0.045	0.835 ± 0.1	0.95 ± 0.075	0.94 ± 0.075	0.966 ± 0.096	0.522 ± 0.045	0.278 ± 0.067	0.0617 ± 0.015	0.0613 ± 0.0072
MDAMB231 BREAST	1.01 ± 0.029	1.02 ± 0.025	1.03 ± 0.033	1.02 ± 0.011	0.988 ± 0.012	1.02 ± 0.032	0.913 ± 0.032	0.882 ± 0.025	1.01 ± 0.034	1 ± 0.037	1 ± 0.026	1 ± 0.04	1.01 ± 0.043	0.778 ± 0.028	0.155 ± 0.0079	0.146 ± 0.0047
MDAMB361 BREAST	0.893 ± 0.098	0.873 ± 0.034	0.959 ± 0.032	0.865 ± 0.035	0.941 ± 0.08	0.978 ± 0.066	0.928 ± 0.063	0.763 ± 0.063	0.862 ± 0.075	0.805 ± 0.039	0.875 ± 0.053	0.79 ± 0.053	0.68 ± 0.066	0.549 ± 0.047	0.478 ± 0.014	0.459 ± 0.015
